Experimental data from the supplement of paper PMC10702517.
± gives the standard deviation.

Experiments:
[1] = chemical recovery from spiked human plasma; higher = better extraction; conditions: pooled human plasma
[2] = chemical recovery into PDMS from spiked human plasma; higher = better extraction; conditions: pooled human plasma, extraction method: PES with PDMS
[3] = chemical recovery by SPE of plasma after PDMS sampling; higher = better extraction; conditions: pooled human plasma, extraction method: HLB SPE of plasma after PES
[4] = extraction method: PES+SPE (3 d PDMS equilibration then HLB SPE)
[5] = extraction method: SPE only (HLB 96-well), PES comparison experiment
[6] = extraction method: solvent precipitation (ACN + hexane)
[7] = extraction method: SPE only (HLB 96-well)
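Wherever chemical recovery by SPE of plasma after PDMS sampling is given: over 400 spiked chemicals quantified by LC-HRMS or GC-HRMS via internal standard calibration, recovery relative to spike mix added to unspiked plasma extract to correct matrix effects.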

SMILES | chemical recovery [1, 4] [%] | chemical recovery [1, 5] [%] | chemical recovery [1, 6] [%] | chemical recovery into PDMS ([2]; equilibration time (d): 1) [%] | chemical recovery into PDMS ([2]; equilibration time (d): 3) [%] | chemical recovery into PDMS ([2]; equilibration time (d): 6) [%] | chemical recovery by SPE of plasma ([3]; equilibration time (d): 1) [%] | chemical recovery by SPE of plasma ([3]; equilibration time (d): 3) [%] | chemical recovery by SPE of plasma ([3]; equilibration time (d): 6) [%] | chemical recovery [1, 7] [%]
OC(Cn1cncn1)(Cn1cncn1)c1ccc(F)cc1F [Fluconazole] | 43.8 ± 3.3 | 47 ± 6.6 | 77.1 ± 3.1 | 2.22 ± 0.25 | 4.26 ± 1.1 | 4.9 ± 1 | 42.2 ± 4.3 | 42.2 ± 4.8 | 36.6 ± 3.1 | –
CC(C)N(C(=O)COc1nnc(C(F)(F)F)s1)c1ccc(F)cc1 [Flufenacet] | – | 52.3 ± 7.7 | 62.5 ± 3.1 | 50 ± 1.1 | 54.1 ± 4.8 | 51.2 ± 6 | 0.558 ± 0.061 | 0.583 ± 0.14 | 0.269 ± 0.043 | –
CC1CCc2cc(F)cc3c(=O)c(C(=O)O)cn1c23 (configuration not stated) [Flumequine] | 44.1 ± 3.4 | 49.8 ± 7.5 | 72.1 ± 3.2 | 0.511 ± 0.092 | 2.26 ± 0.88 | 2.3 ± 1.2 | 43.1 ± 2.7 | 43.8 ± 3.9 | 40.3 ± 3.2 | 44.8 ± 8
CC1(C)O[C@@H]2C[C@H]3[C@@H]4C[C@H](F)C5=CC(=O)C=C[C@]5(C)[C@H]4[C@@H](O)C[C@]3(C)[C@]2(C(=O)CO)O1 [Flunisolide] | – | 46.9 ± 5.2 | – | 5.95 ± 0.6 | 10.2 ± 1.6 | 11.7 ± 2 | 39.7 ± 3.9 | 37.1 ± 2.1 | 27.6 ± 2.4 | –
c1ccc2c(c1)-c1cccc3cccc-2c13 [Fluoranthene] | 79.1 ± 25 | – | 69 ± 3.7 | – | 106 ± 24 | – | – | – | 3.75 ± 6.5 | 6.27 ± 1.4
CC(=O)[C@@]1(O)CC[C@H]2[C@@H]3C[C@H](C)C4=CC(=O)C=C[C@]4(C)[C@@]3(F)[C@@H](O)C[C@@]21C [Fluorometholone] | – | 50.4 ± 7.2 | – | 1.66 ± 0.4 | 3.75 ± 0.69 | 4.15 ± 0.95 | 45.1 ± 3.6 | 48.3 ± 3.2 | 40.3 ± 1.6 | –
CNC1=C(c2cccc(C(F)(F)F)c2)C(=O)C(c2ccccc2)O1 (configuration not stated) [Flurtamone] | 32.8 ± 7.2 | 49.3 ± 7.7 | 80.8 ± 2.4 | 1.85 ± 0.36 | 4.2 ± 2 | 5.43 ± 2.8 | 15.5 ± 2.1 | 11 ± 1.4 | 6.82 ± 0.47 | 51.2 ± 0.52
C[Si](Cn1cncn1)(c1ccc(F)cc1)c1ccc(F)cc1 [Flusilazole] | 45.1 ± 4.8 | 48 ± 7.1 | 70.1 ± 5.4 | 41.3 ± 2.2 | 45.7 ± 3.8 | 43.1 ± 5.8 | 0.32 ± 0.12 | 0.383 ± 0.15 | 0.136 ± 0.0093 | 39.4 ± 2.9
CC(C)C(=O)Nc1ccc([N+](=O)[O-])c(C(F)(F)F)c1 [Flutamide] | – | 67.8 ± 5.2 | – | 32.4 ± 1.4 | 36.2 ± 3.1 | 36.7 ± 1.6 | 21.7 ± 2.7 | 22.2 ± 0.83 | 15.5 ± 1.1 | –
CCC(=O)O[C@]1(C(=O)SCF)[C@H](C)C[C@H]2[C@@H]3C[C@H](F)C4=CC(=O)C=C[C@]4(C)[C@@]3(F)[C@@H](O)C[C@@]21C [Fluticasone propionate] | – | 41.1 ± 5.8 | – | 32.3 ± 3 | 39.3 ± 3.7 | 41.3 ± 2.3 | – | 4.78 ± 8.3 | – | –
COCCCC/C(=N\OCCN)c1ccc(C(F)(F)F)cc1 [Fluvoxamine] | 4.62 ± 1.6 | 41.8 ± 7.1 | – | 2.41 ± 0.97 | 1.09 ± 0.96 | 2.83 ± 1.3 | 1.45 ± 0.092 | 1.56 ± 0.35 | 0.901 ± 0.06 | 51 ± 0.52
O=C1CC2(CCCCC2)CN1 [Gabapentin-Lactam] | 44.2 ± 6.2 | 48.4 ± 5.6 | 71.2 ± 2.9 | 22.3 ± 0.47 | 28.5 ± 1.6 | 31.2 ± 1.6 | 19.4 ± 2.5 | 15.6 ± 1.9 | 9.93 ± 1.6 | 49.4 ± 1.6
